Test results: PubChem BioAssay (NCI)
Several values for one entry are separate records, joined by “and”; a condition that tells them apart may be missing. Equal values may be shown once.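 96-well plates; 48 h exposure; 5 concentrations. Endpoints by linear interpolation between flanking doses. Not reached: highest tested concentration assigned. The concentration for 50% growth inhibition is given as GI50. TGI: concentration producing complete growth inhibition.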

Assays:
Test in all cases: NCI anticancer screen, dose series, 48 h
[1] = test system: A549 NSCLC
[2] = test system: SF-268 CNS
[3] = test system: ACHN renal
[4] = test system: LOX IMVI melanoma
[5] = test system: SK-OV-3 ovarian
[6] = test system: MDA-MB-435
[7] = test system: MCF7 breast
[8] = test system: SN12C renal
[9] = test system: NCI-H522 lung
[10] = test system: SR leukemia

| SMILES | GI50 [1] [µM] | TGI [1] [µM] | GI50 [2] [µM] | TGI [2] [µM] | GI50 [3] [µM] | TGI [3] [µM] | GI50 [4] [µM] | TGI [4] | GI50 [5] [µM] | TGI [5] [µM] | GI50 [6] [µM] | TGI [6] [µM] | GI50 [7] [µM] | TGI [7] [µM] | GI50 [8] [µM] | TGI [8] [µM] | GI50 [9] [µM] | TGI [9] | GI50 [10] [µM] | TGI [10] [µM] |
| --- | --- | --- | --- | --- | --- | --- | --- | --- | --- | --- | --- | --- | --- | --- | --- | --- | --- | --- | --- | --- |
| COc1cc2nc(N3CCCC3)nc(Nc3ccccc3)c2cc1OC | 1.65 | 4.31 | 1.85 | 3.93 | 1.38 | 2.67 | 0.201 | 0.479 µM | 1.99 | 3.72 | 1.66 | 3.09 | 0.637 | 2.29 | 1.72 | 3.24 | 1.89 | 3.96 µM | 0.234 | 1.26 |
| Cc1ccc(N=Nc2c(N)nn(-c3ccccc3)c2N)cc1 | 2.13 | > 100 | 4.7 | > 100 | 11.6 | > 100 | 5.78 | > 100 µM | 2.63 | > 100 | 0.177 | 0.568 | 0.67 | > 100 | 7.66 | > 100 | 1 | > 100 µM | 0.378 | > 100 |
| O=C(NC(=S)NNC(=S)NNc1ccccc1)c1ccccc1 | 8.58 | > 100 | 8.55 | > 100 | 10.1 | > 100 | 7.22 | > 100 µM | 44.2 | > 100 | 3.47 | > 100 | 2.92 | > 100 | 4.87 | > 100 | 0.489 | 3.42 µM | 3.7 | > 100 |
| CCCCCCCCCCCC[n+]1ccccc1 | 2.02 | 5.16 | 1.58 | 5.67 | 2.09 | 14.2 | 1.17 | 2.72 µM | 1.73 | 6.35 | 1.18 | 3.22 | 1.25 | 9.38 | 1.63 | 4.11 | 0.665 | 2.84 µM | 0.202 | 2.15 |
| C[C@H]1[C@H](C)CC[C@]2(C(=O)O)CC[C@]3(C)C(=CC[C@@H]4[C@@]5(C)CC[C@H](OC(=O)/C=C/c6ccc(O)cc6)C(C)(C)[C@@H]5CC[C@]43C)[C@H]12 | 2.37 | 12.7 | 3.23 | 12 | 5.05 | 9.12 | 4.73 | 16.6 µM | 5.25 | 20.3 | 6.38 | 19.7 | 3.02 | 34.4 | 2.15 | 5.65 | 9.45 | 23 µM | 3.77 | 24.2 |
| CC1(C)CC(OCCCC[P+](c2ccccc2)(c2ccccc2)c2ccccc2)CC(C)(C)N1O | 0.37 | 11.5 | 0.412 | 1.88 | 2.39 | 7.28 | 0.317 | 1.25 µM | 0.302 | 0.787 | 0.301 | 1.15 | 0.203 | 1.2 | 0.306 | 1.18 | 0.275 | 1.16 µM | 0.273 | 1.54 |
| COC(=O)c1ccc2c(c1)C(=O)c1c-2n(CCCN)c(=O)c2cc([N+](=O)[O-])ccc12 | < 0.03 | 0.894 | < 0.0177 | 1.4 | < 0.01 | 0.204 | < 0.0115 | 0.154 µM | 0.0332 | 1.65 | 0.105 | 1.44 | < 0.01 | 0.214 | < 0.0233 | 1.36 | < 0.0306 | 0.588 µM | < 0.01 | 0.367 |
| COc1cccc(-n2ncc3c(N/N=C/c4ccc(S(C)(=O)=O)cc4)ncnc32)c1 | 9.24 | > 25 | 5.98 | 13.5 | 6.27 | > 25 | 2.34 | > 25 µM | 4.24 | 10.7 | 3.55 | > 25 | 9.87 | > 25 | 9.88 | > 25 | 6.78 | 20.1 µM | > 12.4 | > 25 |
| CC(=O)OC1CCC2(C)C(CCC3C4CC=C(C(C)=O)C4(C)OC(=O)CC32)C1 (configuration not stated) | 7.22 | 23.1 | 5.2 | 17.8 | 1.3 | 2.61 | 1.61 | 3.17 µM | 11.1 | 23.1 | 1.71 | 4.66 | 1.4 | 3.01 | 3.26 | 13.6 | 1.22 | 2.64 µM | 0.382 | 18.2 |
| CNNC(=N\S(=O)(=O)c1cc(C(=O)Nc2ccc(Cl)cc2)c(Cl)cc1SCc1ccccc1)/N=C/c1ccc([N+](=O)[O-])s1 | 20.5 | > 100 | > 100 | > 100 | > 100 | > 100 | > 100 | > 100 µM | > 100 | > 100 | 23.4 | > 100 | > 100 | > 100 | 6.6 | > 100 | > 100 | > 100 µM | > 100 | > 100 |
| CCN(CC)CCCOc1cc(O)c2c(=O)cc(-c3ccccc3)oc2c1 | 5.53 | 22.5 | 10.1 | 22.9 | 6.16 | 19 | 3.75 | 14.1 µM | 14.3 | 28 | 5.5 | 24.8 | 4.16 | 16.2 | 10.1 | 22.8 | 12.1 | 26.7 µM | 3.44 | 9.39 |
| O=C1OC(C2=CC(=O)c3ccccc3C2=O)C(Cl)=C1Cl (configuration not stated) |  | > 100 |  | 79.2 |  | 33.6 |  | 49.9 µM |  | > 100 |  | > 100 |  | 44.8 |  | 59 |  | 39.3 µM |  | 70.3 |
| CC1=CC2=C(C(N)=O)C(=O)OC2(C)C(c2ccccc2)C1 (configuration not stated) |  | > 100 |  | > 100 |  | > 100 |  | > 100 µM |  | > 100 |  | > 100 |  | > 100 |  | > 100 |  | > 100 µM |  | > 100 |
| S=C=NCc1ccccc1 |  | 17.9 |  | 13.5 |  | 12.7 |  | > 22.5 µM |  | 25.1 |  | 8.33 |  | 28.6 |  | > 36.8 |  | 4.45 µM |  | 12.1 |
| CC1(C)N=C(N)N=C(N)N1c1cccc(CCCCc2ccccc2)c1 | 0.0382 | 1.35 | 0.0735 | 15 | 3.22 | 19.7 | 0.062 | 14.9 µM | 1.98 | 17 | 0.0616 | 11.9 | 0.312 | 10.2 | 0.427 | 12.3 | 0.691 | 13.7 µM | 0.188 | 2.89 |
| O=C1c2ccccc2-c2n[nH]c3cccc1c23 |  | > 100 | 12 | > 100 |  | > 100 | 6.04 | > 100 µM and 34.2 µM | 7.39 | > 100 | 15.8 | > 100 | 21.1 | > 100 | 20.8 | > 100 | 15.7 | 50.4 µM and > 92.8 µM | 9.01 | > 100 |
| COc1ccc2c(c1)sc1nc(-c3ccccc3)c(-c3ccc(O)c(OC)c3)n12 | 9.91 | > 100 | 28.8 | > 100 | 38.9 | > 100 | 7.67 | > 100 µM | 19.6 | > 100 | 1.42 | 5.59 | 28.6 | > 100 | 80.4 | > 100 | 15 | > 100 µM | 3.34 | > 100 |
| C=CC(=O)N1CCC([C@@H]2CCNc3c(C(N)=O)c(-c4ccc(Oc5ccccc5)cc4)nn32)CC1 | 13.2 | > 100 | 9.07 | 34.4 | 2.34 | > 62.6 | 15.2 | 36.3 µM | 0.338 | 14.2 | 17.8 | 44.6 | 23.1 | > 100 | 12.1 | 80.4 | 3.06 | 20.3 µM | 23.9 | > 100 |
| COc1ccc(/C=C/C(=O)c2ccc3cc(OC)c(OC)cc3c2)cc1OC | 2.59 | 10.6 | 4.45 | 22.6 | 3.81 | > 100 | 2.95 | 11.2 µM | 4.41 | 83.5 | 3.06 | 18.1 | 2.69 | 12.1 | 3.41 | 31.2 | 2.48 | 7.99 µM | 1.69 | > 100 |
| Nc1nc(N)c2c(ccc3nccc32)[nH]1 | 0.755 | > 100 | 2.11 | 56.2 | 4.24 | 36 | 0.839 | 16.6 µM | 18.4 | > 81.5 | 0.688 | 35.4 | 2.26 | 15.5 | 6.91 | > 68.6 | 4.88 | 24.3 µM | 1.29 |  |
| O=c1oc2ccc(Cl)cc2c(=O)n1-c1cc(C(F)(F)F)cc(C(F)(F)F)c1 | 0.339 | 13.1 | 0.262 | 5.5 | 0.303 | 10.5 | 0.366 | 2.33 µM | 0.205 | 2.38 | 0.313 | 2.07 | 0.278 | 13.5 | 0.259 | 3.8 | 0.25 | 2.57 µM | 0.308 | > 51 |
| COc1cc(Cn2ccc3c2-c2oncc2CC3)cc(OC)c1 | 5.23 | > 100 | 10.1 | > 100 | 5.54 | 97.9 | 4.83 | > 100 µM | 4.79 | > 100 | 0.369 | 4.03 | 2.2 | > 100 | 6.99 | > 100 | 3.57 | 40.4 µM | 0.851 | 31.1 |
